Laboratory results taken from ChEMBL document CHEMBL1140931, “Discovery of the first selective inhibitor of excitatory amino acid transporter subtype 1” (J Med Chem, 2009).
Activity calls are given as the source filed them. No cut-off for these calls is given here.

How the values were obtained:
[1] = target: T1, Excitatory amino acid transporter 1 (Homo sapiens, UniProt P43003); experiment: Displacement of [3H]D-Asp from human EAAT1 receptor expressed in HEK293 cells
[2] = target: Excitatory amino acid transporter 2 (Homo sapiens, UniProt P43004); experiment: Displacement of [3H]D-Asp from human EAAT2 receptor expressed in HEK293 cells
Excitatory amino acid transporter 2, sequence (P43004 whole entry): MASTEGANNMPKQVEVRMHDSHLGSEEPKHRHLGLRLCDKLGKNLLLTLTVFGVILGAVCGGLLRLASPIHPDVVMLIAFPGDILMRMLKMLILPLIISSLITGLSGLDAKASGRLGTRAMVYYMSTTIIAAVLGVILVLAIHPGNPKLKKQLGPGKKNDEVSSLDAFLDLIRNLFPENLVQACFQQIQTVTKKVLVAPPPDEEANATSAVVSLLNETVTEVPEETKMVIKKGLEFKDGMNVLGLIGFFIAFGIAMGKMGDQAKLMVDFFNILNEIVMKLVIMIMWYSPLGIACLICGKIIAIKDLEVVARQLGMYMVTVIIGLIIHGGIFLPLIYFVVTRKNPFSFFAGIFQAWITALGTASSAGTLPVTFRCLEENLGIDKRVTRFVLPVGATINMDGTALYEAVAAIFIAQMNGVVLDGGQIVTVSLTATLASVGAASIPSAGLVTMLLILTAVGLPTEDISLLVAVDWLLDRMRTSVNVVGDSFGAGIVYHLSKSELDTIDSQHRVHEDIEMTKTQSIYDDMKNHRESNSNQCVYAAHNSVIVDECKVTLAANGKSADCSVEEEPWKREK

[3] = target: T2, Excitatory amino acid transporter 3 (Homo sapiens, UniProt P43005); experiment: Displacement of [3H]D-Asp from human EAAT3 receptor expressed in HEK293 cells
T2 sequence (P43005 whole entry): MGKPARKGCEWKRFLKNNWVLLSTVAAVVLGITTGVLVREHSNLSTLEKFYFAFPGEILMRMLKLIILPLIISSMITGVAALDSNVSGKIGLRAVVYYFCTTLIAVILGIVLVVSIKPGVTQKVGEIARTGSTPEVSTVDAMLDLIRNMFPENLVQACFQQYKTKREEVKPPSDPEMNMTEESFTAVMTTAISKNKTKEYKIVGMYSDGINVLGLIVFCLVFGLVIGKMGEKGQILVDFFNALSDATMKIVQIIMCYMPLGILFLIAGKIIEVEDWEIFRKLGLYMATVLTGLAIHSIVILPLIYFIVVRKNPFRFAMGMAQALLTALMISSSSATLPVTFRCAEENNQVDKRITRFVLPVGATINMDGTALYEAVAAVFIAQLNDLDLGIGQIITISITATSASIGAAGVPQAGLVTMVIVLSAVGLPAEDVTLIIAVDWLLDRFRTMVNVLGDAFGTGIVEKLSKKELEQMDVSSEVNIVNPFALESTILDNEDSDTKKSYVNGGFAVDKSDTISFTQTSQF

[4] = target: T1, Excitatory amino acid transporter 1; experiment: Activity of human EAAT1 expressed in HEK293 cells up to 100 uM; format: cell-based
[5] = target: T3, Excitatory amino acid transporter 3 (Homo sapiens) (UniProt P43005); experiment: Activity of human EAAT3 expressed in HEK293 cells up to 100 uM; format: cell-based
T3 sequence (whole entry): T2 sequence (P43005 whole entry)

[6] = target: T1, Excitatory amino acid transporter 1; experiment: Activity at human EAAT1 expressed in HEK293 cells assessed as inhibition of Glu-induced fluorescent response by FLIPR membrane potential blue assay
[7] = target: T4, Excitatory amino acid transporter 1 (Rattus norvegicus, UniProt P24942); experiment: Activity at rat EAAT1 expressed in TSA201 cells assessed as inhibition of Glu-induced fluorescent response by FLIPR membrane potential blue assay; format: cell-based
T4 sequence (P24942 whole entry): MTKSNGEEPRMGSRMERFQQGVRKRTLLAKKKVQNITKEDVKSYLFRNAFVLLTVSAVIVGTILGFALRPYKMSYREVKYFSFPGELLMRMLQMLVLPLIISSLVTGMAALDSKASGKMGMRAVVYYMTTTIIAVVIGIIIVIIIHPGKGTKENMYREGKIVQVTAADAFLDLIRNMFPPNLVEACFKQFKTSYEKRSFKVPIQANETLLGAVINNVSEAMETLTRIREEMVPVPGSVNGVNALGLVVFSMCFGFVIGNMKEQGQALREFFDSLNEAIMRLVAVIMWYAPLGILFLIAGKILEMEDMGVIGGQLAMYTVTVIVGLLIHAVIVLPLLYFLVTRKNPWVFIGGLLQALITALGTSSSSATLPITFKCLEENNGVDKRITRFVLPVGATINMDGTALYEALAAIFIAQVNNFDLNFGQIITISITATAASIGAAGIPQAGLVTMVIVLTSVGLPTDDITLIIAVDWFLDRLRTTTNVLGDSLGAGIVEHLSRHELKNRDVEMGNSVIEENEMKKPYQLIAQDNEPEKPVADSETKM

T1 sequence (P43003 whole entry): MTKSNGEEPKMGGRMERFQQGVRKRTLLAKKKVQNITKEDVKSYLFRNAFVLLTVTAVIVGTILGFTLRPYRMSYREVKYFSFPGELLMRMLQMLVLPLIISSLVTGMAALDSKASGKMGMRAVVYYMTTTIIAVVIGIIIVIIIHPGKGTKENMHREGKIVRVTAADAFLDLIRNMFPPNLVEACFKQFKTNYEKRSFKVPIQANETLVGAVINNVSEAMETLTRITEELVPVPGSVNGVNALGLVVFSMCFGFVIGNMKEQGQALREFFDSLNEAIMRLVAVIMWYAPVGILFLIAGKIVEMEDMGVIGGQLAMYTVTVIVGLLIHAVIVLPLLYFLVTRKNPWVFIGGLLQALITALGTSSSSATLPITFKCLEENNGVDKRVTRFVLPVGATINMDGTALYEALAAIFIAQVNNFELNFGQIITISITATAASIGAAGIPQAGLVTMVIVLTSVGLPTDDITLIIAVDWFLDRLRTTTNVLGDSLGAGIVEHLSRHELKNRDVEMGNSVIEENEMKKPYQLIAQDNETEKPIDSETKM

Row | SMILES | IC50 [1] [µM] | IC50 [2] [µM] | IC50 [3] [µM] | Activity [4] | Activity [5] | IC50 [6] [µM] | IC50 [7] [µM] | IC50 ([2]; hek293) [µM] | IC50 ([3]; hek293) [µM]
1 | COc1ccc(C2C(C#N)=C(N)OC3=C2C(=O)CC(c2cccc4ccccc24)C3)cc1 (centres undefined) | 0.66 | > 316 | > 316 | inactive | inactive | 0.12 | 0.97 |  | 
2 | N#CC1=C(N)OC2=C(C(=O)CC(c3ccco3)C2)C1c1ccccc1 (centres undefined) | 7.3 | > 316 | > 316 |  |  |  |  |  | 
3 | COc1cccc(C2C(C#N)=C(N)OC3=C2C(=O)CC(c2ccccc2)C3)c1OC (centres undefined) | ~50 | > 100 | > 100 |  |  |  |  |  | 
4 | CC1C(C#N)=C(N)OC2=C1C(=O)CC(c1ccccc1)C2 (centres undefined) | 9.2 | > 316 | > 316 |  |  |  |  |  | 
5 | CC1CC(=O)C2=C(C1)OC(N)=C(C#N)C2c1ccc2c(c1)OCO2 (centres undefined) | > 300 | > 316 | > 316 |  |  |  |  |  | 
6 | N#CC1=C(N)OC2=C(C(=O)CC(c3ccccc3)C2)C1c1ccc2c(c1)OCO2 (centres undefined) | 4 | > 316 | > 316 |  |  |  |  |  | 
7 | N#CC1=C(N)OC2=C(C(=O)CC(c3ccccc3)C2)C1c1cccnc1 (centres undefined) | 30 | > 316 | > 316 |  |  |  |  |  | 
8 | N#CC1=C(N)OC2=C(C(=O)CC(c3cccs3)C2)C1c1ccc([N+](=O)[O-])cc1 (centres undefined) | 9.9 | > 316 | > 316 |  |  |  |  |  | 
9 | N#CC1=C(N)OC2=C(C(=O)CC(c3ccccc3)C2)C1c1cccs1 (centres undefined) | 14 | > 100 | > 100 |  |  |  |  |  | 
10 | N#CC1=C(N)OC2=C(C(=O)CC(c3ccccc3)C2)C1c1ccccc1F (centres undefined) | 4.7 | > 100 | > 100 |  |  |  |  |  | 
11 | COc1ccc(C2C(C#N)=C(N)OC3=C2C(=O)CC(c2ccccc2)C3)cc1 (centres undefined) |  | > 100 | > 100 |  |  |  |  |  | 
12 | N#CC1=C(N)OC2=C(C(=O)CC(c3ccccc3)C2)C1c1ccc([N+](=O)[O-])cc1 (centres undefined) | 3.6 | > 100 | > 100 |  |  |  |  |  | 
13 | N#CC1=C(N)OC2=C(C(=O)CC(c3ccccc3)C2)C1c1ccc(-c2ccccc2)cc1 (centres undefined) | 2.1 | > 100 | > 100 |  |  |  |  |  | 
14 | N[C@@H](COS(=O)(=O)O)C(=O)O | 100 |  | 100 |  |  |  |  |  | 
15 | COc1ccc(C2C(C#N)=C(N)OC3=C2C(=O)CC(c2ccco2)C3)cc1OC(=O)N1CCOCC1 (centres undefined) | 100 | > 316 | > 316 |  |  |  |  |  | 
16 | N#CC1=C(N)OC2=C(C(=O)CC(c3ccccc3)C2)C1c1ccc2ccccc2c1 (centres undefined) | 3.6 | > 100 | > 100 |  |  |  |  |  | 
17 | N#CC1=C(N)OC2=C(C(=O)CC(c3ccccc3)C2)C1c1cc(Br)cs1 (centres undefined) | 4.7 | > 100 | > 100 |  |  |  |  |  | 
18 | CSc1ccc(C2C(C#N)=C(N)OC3=C2C(=O)CC(c2ccccc2)C3)cc1 (centres undefined) | 2.7 | > 100 | > 100 |  |  |  |  |  | 
19 | N#CC1=C(N)OC2=C(C(=O)CC(c3ccccc3)C2)C1c1c[nH]c2ccccc12 (centres undefined) | > 100 | > 100 | > 100 |  |  |  |  | > 100 | > 100
20 | COc1ccc(C2C(C#N)=C(N)OC3=C2C(=O)CC(c2ccccc2Cl)C3)cc1 (centres undefined) | 3.2 | > 316 | > 316 |  |  |  |  |  | 
21 | COc1cc(C2C(C#N)=C(N)OC3=C2C(=O)CC(c2ccccc2)C3)ccc1OCc1c(F)cccc1Cl (centres undefined) | 4.3 | > 100 | > 100 |  |  |  |  |  | 
22 | N#CC1=C(N)OC2=C(C(=O)CC(c3ccccc3)C2)C1c1cccc2ccccc12 (centres undefined) | 7.4 | > 100 | > 100 |  |  |  |  |  | 
23 | N#CC1=C(N)OC2=C(C1)C(=O)CC(c1ccccc1)C2 (centres undefined) | > 300 | > 316 | > 316 |  |  |  |  |  | 
24 | N#CC1=C(N)OC2=C(C(=O)CC(c3ccccc3)C2)C1Cc1ccccc1 (centres undefined) | 30 | > 100 | > 100 |  |  |  |  |  | 
25 | N#CC1=C(N)OC2=C(C(=O)CCC2)C1c1ccccc1F (centres undefined) | > 300 | > 316 | > 316 |  |  |  |  |  | 
